# In PubChem BioAssay AID330 (DTP/NCI, 2004):
# “And” between values parts separate entries of the source, which are not always exact repeats. Equal values may be shown once. Toxic doses and inconclusive results are not listed.
# System: P388 leukemia ip, CD2F1 mice, survival T/C
# Assay: NCI In Vivo Anticancer Drug Screen. Data for tumor model P388 Leukemia (intraperitoneal) in CD2F1 (CDF1) mice
# Conditions: endpoint: median survival time, higher = longer survival
# How it was run: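 Mice carrying the transplanted tumor received test compound or vehicle. Survival was recorded in each group, and the value is the treated-group measurement divided by that of the vehicle-treated control group.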
# [1] = dose: 50.0 mg/kg/injection, schedule: Q01DX005 (ip), vehicle: saline
# [2] = dose: 60.0 mg/kg/injection, schedule: Q01DX005 (ip), vehicle: saline with Tween-80
# [3] = dose: 120.0 mg/kg/injection, schedule: Q01DX005 (ip), vehicle: saline with Tween-80
# [4] = dose: 240.0 mg/kg/injection, schedule: Q01DX005 (ip), vehicle: saline with Tween-80
# [5] = dose: 60.0 mg/kg/injection, schedule: Q01DX005 (ip), vehicle: Klucel (hydroxypropylcellulose) (HPC)
# [6] = dose: 120.0 mg/kg/injection, schedule: Q01DX005 (ip), vehicle: Klucel (hydroxypropylcellulose) (HPC)
# [7] = dose: 240.0 mg/kg/injection, schedule: Q01DX005 (ip), vehicle: Klucel (hydroxypropylcellulose) (HPC)
# [8] = dose: 50.0 mg/kg/injection, schedule: Q01DX005 (ip), vehicle: saline with Tween-80
# [9] = dose: 100.0 mg/kg/injection, schedule: Q01DX005 (ip), vehicle: saline with Tween-80
# [10] = dose: 50.0 mg/kg/injection, schedule: Q01DX009 (ip), vehicle: Klucel (hydroxypropylcellulose) (HPC)
# [11] = dose: 100.0 mg/kg/injection, schedule: Q01DX009 (ip), vehicle: Klucel (hydroxypropylcellulose) (HPC)
# [12] = dose: 200.0 mg/kg/injection, schedule: Q01DX009 (ip), vehicle: Klucel (hydroxypropylcellulose) (HPC)
smiles,measurement,setting,value
CCOC(=O)C(N)CSC(=O)NC (stereo not drawn),T/C,"dose: 10.4 mg/kg/injection, schedule: Q03HX024 (ip), vehicle: saline",118 % of control
same,T/C,"dose: 20.8 mg/kg/injection, schedule: Q03HX024 (ip), vehicle: saline",124 % of control
same,T/C,"dose: 25.0 mg/kg/injection, schedule: Q01DX005 (ip), vehicle: saline",108 % of control
same,T/C,"dose: 27.7 mg/kg/injection, schedule: Q01DX009 (ip), vehicle: saline",119 % of control
same,T/C,"dose: 27.7 mg/kg/injection, schedule: Q01DX009 (oral), vehicle: saline",109 % of control
same,T/C,"dose: 31.2 mg/kg/injection, schedule: Q03HX008 (ip), vehicle: saline",111 % of control
same,T/C,[1],112 % of control and 114 % of control (2×)
same,T/C,"dose: 50.0 mg/kg/injection, schedule: Q01DX005 (iv), vehicle: saline",101 % of control
same,T/C,"dose: 55.5 mg/kg/injection, schedule: Q01DX009 (oral), vehicle: saline",111 % of control
same,T/C,"dose: 62.5 mg/kg/injection, schedule: Q03HX008 (ip), vehicle: saline",120 % of control
same,T/C,"dose: 83.3 mg/kg/injection, schedule: Q03HX024 (ip), vehicle: saline",162 % of control
same,T/C,"dose: 83.3 mg/kg/injection, schedule: Q04DX003 (ip), vehicle: saline",113 % of control
same,T/C,"dose: 100.0 mg/kg/injection, schedule: Q01DX005 (iv), vehicle: saline",106 % of control
same,T/C,"dose: 111.1 mg/kg/injection, schedule: Q01DX009 (oral), vehicle: saline",120 % of control
same,T/C,"dose: 133.0 mg/kg/injection, schedule: Q01DX009 (ip), vehicle: saline",152 % of control
same,T/C,"dose: 166.6 mg/kg/injection, schedule: Q03HX024 (ip), vehicle: saline",187 % of control
same,T/C,"dose: 166.6 mg/kg/injection, schedule: Q04DX003 (ip), vehicle: saline",120 % of control
same,T/C,"dose: 200.0 mg/kg/injection, schedule: Q01DX005 (iv), vehicle: saline",118 % of control
same,T/C,"dose: 200.0 mg/kg/injection, schedule: Q01DX009 (ip), vehicle: saline",154 % of control
same,T/C,"dose: 222.2 mg/kg/injection, schedule: Q01DX009 (ip), vehicle: saline",156 % of control
same,T/C,"dose: 250.0 mg/kg/injection, schedule: Q01DX001 (ip), vehicle: saline",114 % of control
same,T/C,"dose: 250.0 mg/kg/injection, schedule: Q01DX001 (iv), vehicle: saline",92 % of control
same,T/C,"dose: 300.0 mg/kg/injection, schedule: Q01DX009 (ip), vehicle: saline",170 % of control
same,T/C,"dose: 444.4 mg/kg/injection, schedule: Q01DX009 (ip), vehicle: saline",169 % of control
same,T/C,"dose: 444.4 mg/kg/injection, schedule: Q01DX009 (oral), vehicle: saline",155 % of control
same,T/C,"dose: 500.0 mg/kg/injection, schedule: Q01DX001 (ip), vehicle: saline",117 % of control
same,T/C,"dose: 500.0 mg/kg/injection, schedule: Q01DX001 (iv), vehicle: saline",102 % of control
same,T/C,"dose: 666.6 mg/kg/injection, schedule: Q04DX003 (ip), vehicle: saline",153 % of control
same,T/C,"dose: 888.8 mg/kg/injection, schedule: Q01DX009 (oral), vehicle: saline",195 % of control
same,T/C,"dose: 1000.0 mg/kg/injection, schedule: Q01DX001 (ip), vehicle: saline",119 % of control
O=C(Nc1cccc(C(F)(F)F)c1)Oc1ccc(Cl)c2cccnc12,T/C,[2],99 % of control
same,T/C,[3],98 % of control
same,T/C,[4],105 % of control
CN(CCOc1ccccc1)Cc1ccccc1,T/C,[5],97 % of control
same,T/C,[6],104 % of control
same,T/C,[7],105 % of control
O=C1CC2CCC(C1)N2C(=O)Oc1ccccc1,T/C,"dose: 100.0 mg/kg/injection, schedule: Q01DX001 (ip), vehicle: Klucel (hydroxypropylcellulose) (HPC)",101 % of control
same,T/C,"dose: 200.0 mg/kg/injection, schedule: Q01DX001 (ip), vehicle: Klucel (hydroxypropylcellulose) (HPC)",93 % of control
same,T/C,"dose: 400.0 mg/kg/injection, schedule: Q01DX001 (ip), vehicle: Klucel (hydroxypropylcellulose) (HPC)",92 % of control
C=Cc1cc(=O)oc2cc(OC)ccc12,T/C,"dose: 12.5 mg/kg/injection, schedule: Q01DX005 (ip), vehicle: saline with Tween-80",106 % of control and 94 % of control
same,T/C,"dose: 25.0 mg/kg/injection, schedule: Q01DX005 (ip), vehicle: saline with Tween-80",108 % of control and 95 % of control
same,T/C,[8],105 % of control and 115 % of control and 121 % of control
same,T/C,[9],105 % of control
O=c1c(-c2ccccc2)coc2cc(O)ccc12,T/C,[2],105 % of control
same,T/C,[3],89 % of control
same,T/C,[4],88 % of control
Cn1c(-c2ccccc2)c/c(=N\NS(C)(=O)=O)c2cc(S(=O)(=O)O)ccc21,T/C,"dose: 50.0 mg/kg/injection, schedule: Q01DX009 (ip), vehicle: saline with Tween-80",96 % of control
same,T/C,"dose: 100.0 mg/kg/injection, schedule: Q01DX009 (ip), vehicle: saline with Tween-80",91 % of control
same,T/C,"dose: 200.0 mg/kg/injection, schedule: Q01DX009 (ip), vehicle: saline with Tween-80",98 % of control
COC(C(=O)O)(c1ccccc1)C(F)(F)F (stereo not drawn),T/C,"dose: 60.0 mg/kg/injection, schedule: Q01DX005 (ip), vehicle: saline",100 % of control
same,T/C,"dose: 120.0 mg/kg/injection, schedule: Q01DX005 (ip), vehicle: saline",109 % of control
COC1(OC)OC(c2ccccc2)=C(C#N)C(c2ccccc2)C1(OC)OC (stereo not drawn),T/C,[5],102 % of control
same,T/C,[6],100 % of control
same,T/C,[7],96 % of control
NC(=NCCCCCCN=C(N)[N+](=O)[O-])N[N+](=O)[O-],T/C,"dose: 6.25 mg/kg/injection, schedule: Q01DX009 (ip), vehicle: Klucel (hydroxypropylcellulose) (HPC)",113 % of control and 123 % of control
same,T/C,"dose: 12.5 mg/kg/injection, schedule: Q01DX009 (ip), vehicle: Klucel (hydroxypropylcellulose) (HPC)",105 % of control and 106 % of control
same,T/C,"dose: 25.0 mg/kg/injection, schedule: Q01DX009 (ip), vehicle: Klucel (hydroxypropylcellulose) (HPC)",99 % of control and 106 % of control
C=C1C(=O)OC2/C=C(\C)CC/C=C(/CO)C(OC(=O)C(C)(C)O)C(OC(=O)C(C)C)C12 (stereo not drawn),T/C,"dose: 5.0 mg/kg/injection, schedule: Q01DX009 (ip), vehicle: other",107 % of control
CC(NCCNC(C)c1cccnc1)c1cccnc1 (stereo not drawn),T/C,[1],102 % of control
same,T/C,"dose: 100.0 mg/kg/injection, schedule: Q01DX005 (ip), vehicle: saline",110 % of control
same,T/C,"dose: 200.0 mg/kg/injection, schedule: Q01DX005 (ip), vehicle: saline",94 % of control
O=c1[nH]cnc2ccc3[nH]ncc3c12,T/C,[8],92 % of control
same,T/C,[9],94 % of control
same,T/C,"dose: 200.0 mg/kg/injection, schedule: Q01DX005 (ip), vehicle: saline with Tween-80",105 % of control
Cc1cc(C)c2c(c1)/C(=C/C(=O)c1ccccc1)C(=O)N2,T/C,[10],100 % of control
same,T/C,[11],95 % of control
same,T/C,[12],100 % of control
CC(C(=O)O)c1ccc2sc(-c3ccccc3)nc2c1 (stereo not drawn),T/C,[10],102 % of control
same,T/C,[11],100 % of control
same,T/C,[12],98 % of control
Clc1ccc2[nH]c3c(c2c1)CCCC3,T/C,"dose: 200.0 mg/kg/injection, schedule: Q04DX003 (ip), vehicle: saline with Tween-80",94 % of control
O=C(c1ccccc1)N1CC2CCC1CN2C(=O)c1ccccc1,T/C,"dose: 12.5 mg/kg/injection, schedule: Q01DX009 (ip), vehicle: other",105 % of control
same,T/C,"dose: 25.0 mg/kg/injection, schedule: Q01DX009 (ip), vehicle: other",105 % of control
same,T/C,"dose: 50.0 mg/kg/injection, schedule: Q01DX009 (ip), vehicle: other",100 % of control
same,T/C,"dose: 100.0 mg/kg/injection, schedule: Q01DX009 (ip), vehicle: other",100 % of control
same,T/C,"dose: 200.0 mg/kg/injection, schedule: Q01DX009 (ip), vehicle: other",105 % of control
O=S(=O)(c1ccc(NC(=S)N2CCCCC2)cc1)N1CCCCC1,T/C,[10],95 % of control
same,T/C,[11],88 % of control
same,T/C,[12],86 % of control
C=C(C)C(=O)OC1C(C(C)CCCO)=C(CO)CC2OC(=O)C(=C)C21 (stereo not drawn),T/C,"dose: 3.12 mg/kg/injection, schedule: Q01DX009 (ip), vehicle: saline + alcohol",108 % of control
same,T/C,"dose: 6.25 mg/kg/injection, schedule: Q01DX009 (ip), vehicle: saline + alcohol",112 % of control
same,T/C,"dose: 12.5 mg/kg/injection, schedule: Q01DX009 (ip), vehicle: saline + alcohol",118 % of control
same,T/C,"dose: 25.0 mg/kg/injection, schedule: Q01DX009 (ip), vehicle: saline + alcohol",111 % of control
